The target of test [1] is T1, TgMyoA (myosinA) (Toxoplasma gondii, UniProt O00934).
T1 construct: recombinant TgMyoA heavy chain co-expressed with TgMLC1 and TgELC1 in Sf9 cells; with TgMLC1, TgELC1
As to the kind of experiment: actin-activated ATPase (ADP-Glo) at […] compound; partial inhibition. The test is classed as biochemical. Background: In ADP-Glo the light output rises with the ADP produced.

Test [2] concerns the target T1, TgMyoA (myosinA). As to the kind of experiment: actin-activated ATPase (ADP-Glo) at […] compound. The test is classed as biochemical.

Molecules are shown by their SMILES.

For `Clc1ccc(C2(NCc3c[nH]nc3-c3cccs3)CC2)cc1Cl` [VEST4], the “actin-activated ATPase (ADP-Glo) at 20 μM compound; partial inhibition” value at TgMyoA (myosinA) [1] is reported as “partially retained in analogs containing p-Me (VEST3) or m,p-dichloro (VEST4) substituents”.
As for `Cc1ccc(C2(NCc3c[nH]nc3-c3cccs3)CC2)cc1` [VEST3], the “actin-activated ATPase (ADP-Glo) at 20 μM compound; partial inhibition” value on TgMyoA (myosinA) [1] is “partially retained in analogs containing p-Me (VEST3) or m,p-dichloro (VEST4) substituents”.
As for `Clc1ccc(C2(NCc3c[nH]nc3-c3cccs3)CC2)cc1` [VEST2], on TgMyoA (myosinA) [2], the “actin-activated ATPase (ADP-Glo) at 20 μM compound” value was “inhibition of both in vitro ATPase activity and parasite growth were retained when the p-OMe substituent in KNX-002 was replaced”.

(Values after publication PMC10185354, “MyosinA is a druggable target in the widespread protozoan parasite Toxoplasma gondii” (PLOS Biology, 2023).)
